Measurements as given in patent publication US7414107B2, “Pharmacologically active peptide conjugates having a reduced tendency towards enzymatic hydrolysis” (priority 1998, dated 2008).
Where a SMILES comes first, the peptide text is derived from it. Bridges are numbered along the chain shown (N, C = ends). Where no end group is shown, it is not given here. [ ]: non-standard residue; d: D form. Dab = NCC[C@H](N)C(=O)O

Columns and labels:
leucine aminopeptidase = biological target: T1, leucine aminopeptidase (Sus scrofa, UniProt P28839); assay: Hydrolysis kinetics in leucine aminopeptidase solution; format: in vitro ADME, porcine; conditions: 50 mM phosphate buffer pH 7.4, 37° C., leucine aminopeptidase 25 U/ml; for half-life: pig
T1 construct: purchased Sigma, UK type III-CP (catalogue number not given); host or cells: porcine kidney
T1 sequence (P28839 1-519): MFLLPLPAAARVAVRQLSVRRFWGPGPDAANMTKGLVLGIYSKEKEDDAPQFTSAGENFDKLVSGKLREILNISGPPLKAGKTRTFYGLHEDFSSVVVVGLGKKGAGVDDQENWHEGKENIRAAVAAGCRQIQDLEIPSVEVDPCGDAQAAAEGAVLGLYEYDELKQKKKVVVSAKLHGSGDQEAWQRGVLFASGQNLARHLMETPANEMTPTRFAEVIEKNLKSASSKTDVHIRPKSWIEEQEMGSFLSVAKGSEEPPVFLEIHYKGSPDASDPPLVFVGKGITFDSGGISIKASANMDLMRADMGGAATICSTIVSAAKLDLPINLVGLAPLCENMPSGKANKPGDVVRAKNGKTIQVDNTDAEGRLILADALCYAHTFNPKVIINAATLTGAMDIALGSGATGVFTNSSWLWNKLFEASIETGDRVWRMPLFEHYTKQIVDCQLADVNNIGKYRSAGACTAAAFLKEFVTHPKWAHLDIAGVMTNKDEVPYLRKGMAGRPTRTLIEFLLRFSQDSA
Procedure: (§1) Carboxypeptidase A (EC 3.4.17.1) type I from bovine pancreas, leucine aminopeptidase (EC 3.4.11.1) type III-CP from porcine kidney, α-chymotrypsin (EC […]) from bovine pancreas, and pepsin A (EC 3.4.23.1) from porcine stomach mucosa […] were obtained from Sigma, UK.
(§2) Gradient HPLC analysis of samples from in vitro kinetic measurements performed as described below was performed using a Hewlett Packard HP 1100 HPLC system consisting of a HP 1100 Binary Pump, a HPI 100 Autosampler, a HPI 100 Column Thermostat and a HP 1100 Variable Wavelength Detector. A Merck LiChroCART column (125×4 mm I.D.) and a LiChroCART precolumn (4×4 mm I.D.) packed with Lichrospher RP-18 (5 .μum particles) was used. The column was kept at 25° C. or 75° C. and the column effluent was measured by UV detection at 215 run. Separation of the peptide conjugates or the native peptides from degradation products and constituents of the reaction solutions was accomplished using gradient elution of the column with mixtures of mobile phase A (0.1 vol % TFA in water) and mobile phase B (0.085 vol % TFA in acetonitrile) at a flow rate of 1 ml/min.
(§3) The degradation of the peptide conjugate and the corresponding native peptide were studied at 37° C. in a 50 mM phosphate buffer solution at pH 7.4 containing leucine arninopeptidase (25 U/ml) or carboxypeptidase A (1 or 25 U/ml). Experiments were initiated by addition of an aliquot (100 μl) of a stock solution (1 mg/ml) of the peptide conjugate or the native peptide to 900 μl preheated enzyme solution giving a final concentration of ˜0.1 mg/ml (10^−5-10^−4M) of the peptide conjugate or the native peptide. The peptide/enzyme solution was kept at 37° C. using a SHT200D block heater from Stuart Scientific. At appropriate time intervals, samples of 100 μl were withdrawn from the peptide/enzyme solution, mixed thoroughly with 20 μl 25% TFA in acetonitrile in order to stop the enzymatic degradation process and analysed by HPLC as described above. Half-lives (t1/2) for the peptide conjugate and the corresponding native peptide in the enzyme solutions were calculated from plots of the natural logarithm to the concentration of the residual peptide (HPLC peak heights) against time using the formula t/2=1/kobs×ln(2), where kobs is the apparent first-order rate constant for the observed degradation.

carboxypeptidase A = biological target: T2, carboxypeptidase A (Bos taurus, UniProt P00730); assay: Hydrolysis kinetics in carboxypeptidase A solution; format: in vitro ADME, bovine; conditions: 50 mM phosphate buffer pH 7.4, 37° C., carboxypeptidase A 1 U/ml
T2 construct: purchased Sigma, UK type I (catalogue number not given); host or cells: bovine pancreas
T2 sequence (P00730 111-419): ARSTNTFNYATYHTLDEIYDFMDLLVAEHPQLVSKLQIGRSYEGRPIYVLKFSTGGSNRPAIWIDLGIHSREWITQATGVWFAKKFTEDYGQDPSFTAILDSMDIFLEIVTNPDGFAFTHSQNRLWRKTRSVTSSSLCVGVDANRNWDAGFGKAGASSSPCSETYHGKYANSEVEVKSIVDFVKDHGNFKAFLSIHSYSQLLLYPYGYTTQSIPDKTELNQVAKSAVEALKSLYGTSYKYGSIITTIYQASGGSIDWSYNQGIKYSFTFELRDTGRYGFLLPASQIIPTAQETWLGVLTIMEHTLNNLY
Procedure: as §1, §2, §3

Row | Molecule | half-life (leucine aminopeptidase) [h] | pseudo first-order rate constant for the degradation (leucine aminopeptidase) [min⁻¹] | half-life (carboxypeptidase A) [h] | pseudo first-order rate constant for the degradation (carboxypeptidase A) [min⁻¹]
1 | CC(C)C[C@@H]1NC(=O)[C@@H]2CCCN2C(=O)CNC(=O)[C@H](Cc2ccccc2)NC(=O)[C@H](Cc2c[nH]cn2)NC(=O)[C@@H](NC(=O)[C@H](CO)NC(=O)[C@H](Cc2ccc(O)cc2)NC(=O)[C@@H](NC(=O)CNC(=O)CNC(=O)[C@H](CCCCN)NC(=O)[C@H](CCCCN)NC(=O)[C@H](CCCCN)NC(=O)[C@H](CCCCN)NC(=O)[C@H](CCCCN)NC(=O)[C@@H](N)CCCCN)[C@@H](C)O)CSSC[C@@H](C(=O)N[C@@H](CCCCN)C(=O)N2CCC[C@H]2C(=O)N[C@@H](CCC(N)=O)C(=O)NCC(=O)NCC(=O)N[C@@H](CCCCN)C(=O)N[C@@H](CCCCN)C(=O)N[C@@H](CCCCN)C(=O)N[C@@H](CCCCN)C(=O)N[C@@H](CCCCN)C(=O)N[C@@H](CCCCN)C(=O)O)NC(=O)[C@H](C(C)C)NC(=O)[C@H](Cc2c[nH]c3ccccc23)NC(=O)[C@H]([C@@H](C)O)NC1=O [(Lys)6-EMP-1-(Lys)6-OH, H-(Lys)6-Gly-Gly-Thr-Tyr-Ser-Cys-His-Phe-Gly-Pro-Leu-Thr -Trp-Val-Cys-Lys-Pro-Gln-Gly-Gly-(Lys)6-OH] (H-KKKKKKGGTYSCHFGPLTWVCKPQGGKKKKKK-OH; disulfide 12-21) | > 100 |  |  | 
2 | CC(C)C[C@@H]1NC(=O)[C@@H]2CCCN2C(=O)CNC(=O)[C@H](Cc2ccccc2)NC(=O)[C@H](Cc2c[nH]cn2)NC(=O)[C@@H](NC(=O)[C@H](CO)NC(=O)[C@H](Cc2ccc(O)cc2)NC(=O)[C@@H](NC(=O)CNC(=O)CNC(=O)[C@H](CCCCN)NC(=O)[C@H](CCCCN)NC(=O)[C@H](CCCCN)NC(=O)[C@H](CCCCN)NC(=O)[C@H](CCCCN)NC(=O)[C@@H](N)CCCCN)[C@@H](C)O)CSSC[C@@H](C(=O)N[C@@H](CCCCN)C(=O)N2CCC[C@H]2C(=O)N[C@@H](CCC(N)=O)C(=O)NCC(=O)NCC(=O)O)NC(=O)[C@H](C(C)C)NC(=O)[C@H](Cc2c[nH]c3ccccc23)NC(=O)[C@H]([C@@H](C)O)NC1=O [(Lys)6-EMP-1-OH, H-(Lys)6-Gly-Gly-Thr-Tyr-Ser-Cys-His-Phe-Gly-Pro-Leu -Thr-Trp-Val-Cys-Lys-Pro-Gln-Gly-Gly-OH] (H-KKKKKKGGTYSCHFGPLTWVCKPQGG-OH; disulfide 12-21) | > 24 |  |  | 
3 | CC[C@H](C)[C@H](NC(=O)[C@H](Cc1ccccc1)NC(=O)[C@H](CCC(=O)O)NC(=O)[C@H](CCCCN)NC(=O)[C@H](C)NC(=O)[C@H](C)NC(=O)[C@H](CCC(N)=O)NC(=O)CNC(=O)[C@H](CCC(=O)O)NC(=O)[C@H](CC(C)C)NC(=O)[C@H](Cc1ccc(O)cc1)NC(=O)[C@H](CO)NC(=O)[C@H](CO)NC(=O)[C@@H](NC(=O)[C@H](CC(=O)O)NC(=O)[C@H](CO)NC(=O)[C@@H](NC(=O)[C@H](Cc1ccccc1)NC(=O)[C@@H](NC(=O)CNC(=O)[C@H](CCC(=O)O)NC(=O)[C@H](C)NC(=O)[C@@H](N)Cc1c[nH]cn1)[C@@H](C)O)[C@@H](C)O)C(C)C)C(=O)N[C@@H](C)C(=O)N[C@@H](Cc1c[nH]c2ccccc12)C(=O)N[C@@H](CC(C)C)C(=O)N[C@H](C(=O)N[C@@H](CCCCN)C(=O)NCC(=O)N[C@@H](CCCNC(=N)N)C(=O)N[C@@H](CCCCN)C(=O)N[C@@H](CCCCN)C(=O)N[C@@H](CCCCN)C(=O)N[C@@H](CCCCN)C(=O)N[C@@H](CCCCN)C(=O)N[C@@H](CCCCN)C(=O)O)C(C)C [GLP-1(7-36)(Human)-(Lys)6-OH, H-His-Ala-Glu-Gly-Thr-Phe-Thr-Ser-Asp-Val-Ser-Ser-Tyr-Leu -Glu-Gly-Gln-Ala-Ala-Lys-Glu-Phe-Ile-Ala-Trp-Leu-Val-Lys-Gly-Arg-(Lys)6-OH] | 0.883 | 0.013 | 1.45 | 0.008
4 | CC[C@H](C)[C@H](NC(=O)[C@H](Cc1ccccc1)NC(=O)[C@H](CCC(=O)O)NC(=O)[C@H](CCCCN)NC(=O)[C@H](C)NC(=O)[C@H](C)NC(=O)[C@H](CCC(N)=O)NC(=O)CNC(=O)[C@H](CCC(=O)O)NC(=O)[C@H](CC(C)C)NC(=O)[C@H](Cc1ccc(O)cc1)NC(=O)[C@H](CO)NC(=O)[C@H](CO)NC(=O)[C@@H](NC(=O)[C@H](CC(=O)O)NC(=O)[C@H](CO)NC(=O)[C@@H](NC(=O)[C@H](Cc1ccccc1)NC(=O)[C@@H](NC(=O)CNC(=O)[C@H](CCC(=O)O)NC(=O)[C@H](C)NC(=O)[C@@H](N)Cc1c[nH]cn1)[C@@H](C)O)[C@@H](C)O)C(C)C)C(=O)N[C@@H](C)C(=O)N[C@@H](Cc1c[nH]c2ccccc12)C(=O)N[C@@H](CC(C)C)C(=O)N[C@H](C(=O)N[C@@H](CCCCN)C(=O)NCC(=O)N[C@@H](CCCNC(=N)N)C(=O)O)C(C)C [GLP-1(7-36)(Human)-OH, H-His-Ala-Glu-Gly-Thr-Phe-Thr-Ser-Asp-Val-Ser-Ser-Tyr-Leu -Glu-Gly-Gln-Ala-Ala-Lys-Glu-Phe-Ile-Ala-Trp-Leu-Val-Lys-Gly-Arg-OH, reference compound] | 0.367 |  | 2.47 | 0.0047
5 | CC(C)C[C@H](NC(=O)[C@H](Cc1ccccc1)NC(=O)CNC(=O)CNC(=O)[C@@H](N)Cc1ccc(O)cc1)C(=O)N[C@@H](CCN)C(=O)N[C@@H](CCN)C(=O)N[C@@H](CCN)C(=O)N[C@@H](CCN)C(=O)N[C@@H](CCN)C(=O)N[C@@H](CCN)C(=O)O [Leu-Enkephalin-(Dbu)6-OH, H-Tyr-Gly-Gly-Phe-Leu-(Dbu)6-OH] (H-YGGFL[Dab][Dab][Dab][Dab][Dab][Dab]-OH) | 0.467 | 0.025 | 23.1 | 0.005
6 | H-KKKKKKYGGFL-OH [(Lys)6-Leu-Enkephalin-OH, H-Lys6 Tyr-Gly-Gly-Phe-Leu-OH] | 0.45 | 0.026 |  | 
7 | H-RPKPQQFFGLMKKKKKK-NH2 [Substance P-(Lys)6-NH2, H-Arg-Pro-Lys-Pro-Gln-Gln-Phe-Phe-Gly-Leu-Met-Lys6 -NH2] | 1.1 | 0.011 | 2.1 | 0.0055
8 | H-WAGGDASGEKEKEKE-OH [DSIP-(Lys-Glu)3-OH, H-Trp-Ala-Gly-Gly-Asp-Ala-Ser-Gly-Glu-(Lys-Glu)3-OH] | 2.42 |  |  | 
9 | H-YGGFLKEEEKK-OH [Leu-Enkephalin-Lys-(Glu)3-(Lys)2-OH, H-Tyr-Gly-Gly-Phe-Leu-Lys-(Glu)3-(Lys)2-OH] | 0.095 | 0.12 | 14.4 | 0.0008
10 | KKKKKKYGGFLKKKKKK [(Lys)6-Leu-Enkephalin-(Lys)6-OH, H-Lys6-Tyr-Gly-Gly-Phe-Leu-Lys6 OH] | > 100 |  |  | 
11 | WAGGDASGE [DSIP, H-Trp-Ala-Gly-Gly-Asp-Ala-Ser-Gly-GIu-OH, reference compound] | < 0.333 |  |  | 
